According to publication PMC8566969, “Comparison of viral RNA–host protein interactomes across pathogenic RNA viruses informs rapid antiviral drug discovery for SARS-CoV-2” (Cell Research, 2021):
“Also recorded” adds a separate entry of the source.

Legend:
[1] = system: SARS-CoV-2; set-up: method as in PMID 32707573; conditions: at 2.5 μM; cited from earlier work
[2] = system: SARS-CoV-2 virus entry; conditions: read-out: IC50, antiviral activity in virus entry inhibitor screen; cited from earlier work
[3] = Solubility in water (statement in formulation method)
[4] = system: EBOVΔVP30-GFP virus (strain Zaire Mayinga); assay: microbe, parasite or virus in culture; conditions: Zaire ebolavirus, 72 h, read-out: IC50, EBOVΔVP30-GFP
[5] = system: SARS-CoV-2 (IPBCAMS-YL01/2020); assay: microbe, parasite or virus in culture; conditions: Severe acute respiratory syndrome coronavirus 2, A549-ACE2, 48 h, read-out: IC50 (half maximal inhibitory concentration), SARS-CoV-2 IPBCAMS-YL01/2020
[6] = Cell viability assay (CellTiter-Glo), Huh7 cells; conditions: human
[7] = system: SARS-CoV-2 (IPBCAMS-YL01/2020); assay: in vitro; conditions: human
[8] = system: EBOVΔVP30-GFP virus (strain Zaire Mayinga)
[9] = biological target: T1, HSP90AB1 (Homo sapiens, UniProt P08238); assay: biochemical; type: binding
T1 construct: HSP90AB1 protein was detected using a specific antibody after the A549 cells were treated with Cepharanthine; endogenous in cells; host or cells: A549

[10] = system: SARS-CoV-2 (IPBCAMS-YL01/2020); set-up: species or system hACE2 transgenic mice; conditions: mouse, in vivo
[11] = biological target: T1, HSP90AB1; type: cell-based
[12] = system: ZIKV (MR766); assay: Antiviral assay, ZIKV in Huh7 cells (4G2 immunostaining, high-content imaging); conditions: for SI (CC50/IC50), ZIKV: Huh7 cells; for IC50: Zika virus, Huh-7, 72 h, read-out: IC50, ZIKV
[13] = system: SARS-CoV-2 (IPBCAMS-YL01/2020); assay: Antiviral assay, bona fide SARS-CoV-2 in Huh7.5.1 cells; type: cell-based; conditions: IPBCAMS-YL01/2020, human liver Huh7.5.1 cells
[14] = in vitro; conditions: human
[15] = in vitro; conditions: human; remark: listed apart in the source
[16] = biological target: (GGCT); set-up: method as in IUPHAR/BPS Guide to PHARMACOLOGY, pubmed_id 17260973; conditions: assay_description: pKa= 9.71, ref IUPHAR/BPS Guide to PHARMACOLOGY, pubmed_id 17260973, cited from earlier work
[17] = system: TUBB cytoskeletal networks; assay: Immunofluorescence of the TUBB-containing cytoskeleton in Caco-2 cells; type: cell-based, human; conditions: 0.5 µM, 6 h
[18] = biological target: TUBB (Homo sapiens, UniProt P07437); assay: Cellular thermal shift assay (CETSA) in A549 cells, TUBB; type: cell-based
[19] = system: SARS-CoV-2 RNA interacting human proteins; set-up: ACT_VALUE, ACT_TYPE ID50: unit not given here; conditions: cited from earlier work
[20] = system: heat shock protein 90 alpha family class B member 1 (HSP90AB1); set-up: method as in earlier work; conditions: ref IUPHAR/BPS Guide to PHARMACOLOGY (geldanamycin pubmed_id 24984936), cited from earlier work; for IC50: read-out: original_affinity_median_nm (IC50)
[21] = biological target: aldehyde dehydrogenase 2 family member (ALDH2); set-up: method as in IUPHAR/BPS Guide to PHARMACOLOGY, pubmed_id 18613661; conditions: In vitro inhibition of recombinant human mitochondrial aldehyde dehydrogenase, ref IUPHAR/BPS Guide to PHARMACOLOGY, pubmed_id 18613661, cited from earlier work
[22] = system: isocitrate dehydrogenase (NADP(+)) 2 (IDH2); set-up: method as in IUPHAR/BPS Guide to PHARMACOLOGY, pubmed_id 32071674; conditions: ref IUPHAR/BPS Guide to PHARMACOLOGY, pubmed_id 32071674; cited from earlier work
[23] = read-out: original_affinity_median_nm (Ki)

T1 sequence (P08238 whole entry): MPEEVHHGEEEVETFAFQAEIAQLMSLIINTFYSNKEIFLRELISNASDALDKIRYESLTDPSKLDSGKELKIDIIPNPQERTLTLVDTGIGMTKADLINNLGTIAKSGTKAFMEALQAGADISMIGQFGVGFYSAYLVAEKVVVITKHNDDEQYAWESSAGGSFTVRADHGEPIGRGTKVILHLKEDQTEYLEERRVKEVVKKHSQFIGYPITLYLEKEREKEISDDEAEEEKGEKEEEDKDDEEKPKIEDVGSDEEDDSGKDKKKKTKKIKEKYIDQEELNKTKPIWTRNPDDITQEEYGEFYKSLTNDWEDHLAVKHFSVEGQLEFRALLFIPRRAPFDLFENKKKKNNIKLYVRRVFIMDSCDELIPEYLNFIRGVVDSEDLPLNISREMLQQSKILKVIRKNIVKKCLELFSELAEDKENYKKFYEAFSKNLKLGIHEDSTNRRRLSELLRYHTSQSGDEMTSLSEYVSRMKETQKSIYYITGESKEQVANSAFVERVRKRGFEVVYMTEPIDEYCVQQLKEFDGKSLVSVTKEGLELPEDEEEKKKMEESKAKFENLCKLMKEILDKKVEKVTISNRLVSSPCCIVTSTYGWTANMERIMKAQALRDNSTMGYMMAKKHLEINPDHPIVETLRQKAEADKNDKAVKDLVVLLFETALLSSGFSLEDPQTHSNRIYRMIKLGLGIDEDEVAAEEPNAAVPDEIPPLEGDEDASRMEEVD
Sequence of TUBB (P07437 whole entry): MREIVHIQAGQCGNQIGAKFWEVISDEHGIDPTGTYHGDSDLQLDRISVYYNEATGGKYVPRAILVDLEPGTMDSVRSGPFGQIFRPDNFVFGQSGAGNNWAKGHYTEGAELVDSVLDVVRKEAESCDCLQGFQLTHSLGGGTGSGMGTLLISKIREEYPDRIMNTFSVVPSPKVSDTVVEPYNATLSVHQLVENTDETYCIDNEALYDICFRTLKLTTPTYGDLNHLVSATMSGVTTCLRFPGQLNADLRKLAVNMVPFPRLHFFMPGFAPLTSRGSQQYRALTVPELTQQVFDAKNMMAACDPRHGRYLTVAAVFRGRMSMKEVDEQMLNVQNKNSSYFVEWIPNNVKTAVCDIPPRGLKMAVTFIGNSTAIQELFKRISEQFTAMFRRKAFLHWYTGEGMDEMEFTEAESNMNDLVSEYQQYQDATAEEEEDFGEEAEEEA
Sequence of TUBB (P68363 whole entry, further chain): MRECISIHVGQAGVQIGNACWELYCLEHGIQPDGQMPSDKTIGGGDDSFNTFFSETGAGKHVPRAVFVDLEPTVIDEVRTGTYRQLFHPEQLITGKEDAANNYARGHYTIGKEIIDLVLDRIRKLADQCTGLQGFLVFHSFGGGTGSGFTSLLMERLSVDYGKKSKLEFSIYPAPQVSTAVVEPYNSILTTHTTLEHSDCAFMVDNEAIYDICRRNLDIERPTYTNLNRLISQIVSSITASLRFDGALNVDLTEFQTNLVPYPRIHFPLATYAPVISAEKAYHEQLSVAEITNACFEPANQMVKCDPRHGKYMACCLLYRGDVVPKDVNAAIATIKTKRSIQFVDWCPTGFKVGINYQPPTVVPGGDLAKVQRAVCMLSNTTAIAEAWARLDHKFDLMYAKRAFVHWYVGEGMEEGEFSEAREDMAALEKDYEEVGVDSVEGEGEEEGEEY

SMILES: COc1ccc2cc1Oc1ccc(cc1)C[C@H]1c3c(cc4c(c3Oc3cc5c(cc3OC)CCN(C)[C@@H]5C2)OCO4)CCN1C [Cepharanthine]
- inhibition ratio [1]: > 40%
- IC50 [2]: 1400 nM
- Solubility in water [3]: insoluble in water
- IC50 [4]: 420 nM
- IC50 [5]: 1670 nM
- CC50 at 72 h [6]: 24000 nM
- selectivity ratio [7]: 18.5
- SI (CC50/IC50), EBOVΔVP30-GFP [8]: 12.10
- Kd [9]: 3500 nM
- Viral loads in the lungs vs vehicle group at 3 dpi (qPCR) [10]: no obvious differences
- Viral loads in the lungs vs vehicle group at 5 dpi (qPCR) [10]: significant reduction
- Expression level of IL6 in lung vs vehicle group ([10]; 10 mg/kg): reduced
- Expression level of TNF in lung vs vehicle group ([10]; 10 mg/kg): reduced
- Lung injury and inflammation (H&E staining) ([10]; 10 mg/kg): the extent of damage was much relieved in lung tissue
- CETSA target engagement, HSP90AB1 [11]: targeted HSP90AB1; also recorded: bound to HSP90AB1 in cells
- SI (CC50/IC50), ZIKV [12]: 10.97
- IC50 [12]: 2190 nM
- Antiviral effect against SARS-CoV-2 in Huh7.5.1 cells (in words) [13]: confirmed

SMILES: COc1cc2c(cc1OC)[C@@H]1C(=O)c3ccc4c(c3O[C@@H]1CO2)C=CC(C)(C)O4 [Deguelin]
- CC50 [14]: 34700 nM

SMILES: CC(C)(O)CNc1nc(Nc2ccnc(C(F)(F)F)c2)nc(-c2cccc(C(F)(F)F)n2)n1 [Enasidenib, 2-Methyl-1-(4-(6-(trifluoromethyl)pyridin-2-yl)-6-(2-(trifluoromethyl)pyridin-4-ylamino)-1,3,5-triazin-2-ylamino)propan-2-ol]
- IC50 [5]: 28000 nM
- selectivity ratio [7]: 1.17
- CC50 [15]: 24900 nM
- IC50 [12]: 13500 nM

SMILES: COP(=O)(CCC(N)C(=O)O)Oc1cccc(CC(=O)O)c1 (stereo not drawn) [GGsTop]
- affinity_median (pKi) [16]: 3.77
- Ki [16, 23]: 170000 nM

SMILES: COC(=O)[C@H]1[C@@H](O)[C@@]2(O)c3c(OC)cc(O[C@@H]4O[C@@H]([C@H](O)CO)CO[C@H]4OC)cc3O[C@@]2(c2ccc(OC)cc2)[C@@H]1c1ccccc1 [Silvestrol]
- IC50 [4]: 20 nM
- SI (CC50/IC50), EBOVΔVP30-GFP [8]: 0.50
- IC50 [12]: 10 nM

SMILES: CNC(=O)c1cc(Oc2ccc(NC(=O)Nc3ccc(Cl)c(C(F)(F)F)c3)cc2)ccn1 [Sorafenib]
- CC50 [14]: 12900 nM

SMILES: CN1CCN(CCCN2c3ccccc3Sc3ccc(C(F)(F)F)cc32)CC1 [Trifluoperazine]
- IC50 [4]: 1790 nM
- IC50 [5]: 3460 nM
- CC50 at 72 h [6]: 7790 nM
- selectivity ratio [7]: 10.7
- SI (CC50/IC50), EBOVΔVP30-GFP [8]: 2.18
- Architecture of the TUBB cytoskeletal networks (immunofluorescence) [17]: architecture of the TUBB cytoskeletal networks was disrupted
- SI (CC50/IC50), ZIKV [12]: 8.11
- IC50 [12]: 960 nM
- CETSA, thermal stability of TUBB [18]: slightly affected the thermal stability of TUBB
- Antiviral effect against SARS-CoV-2 in Huh7.5.1 cells (in words) [13]: confirmed

SMILES: CC(=O)O[C@@]12CO[C@@H]1C[C@H](O)[C@@]1(C)C(=O)[C@H](O)C3=C(C)[C@@H](OC(=O)[C@H](O)[C@@H](NC(=O)OC(C)(C)C)c4ccccc4)C[C@@](O)([C@@H](OC(=O)c4ccccc4)[C@H]21)C3(C)C [docetaxel]
- ACT_VALUE, ACT_TYPE ID50 [19]: 6.699

SMILES: C=C1C[C@@H]2CC[C@@]34C[C@H]5O[C@H]6[C@@H](O3)[C@H]3O[C@H](CC[C@@H]3O[C@H]6[C@H]5O4)CC(=O)C[C@@H]3[C@@H](OC)[C@@H](C[C@H](O)CN)O[C@H]3C[C@H]3O[C@@H](CC[C@@H]1O2)C[C@@H](C)C3=C [eribulin]
- ACT_VALUE, ACT_TYPE IC50 [19]: 8.23

SMILES: COC1=C2C[C@@H](C)C[C@H](OC)[C@H](O)[C@@H](C)/C=C(\C)[C@H](OC(N)=O)[C@@H](OC)/C=C\C=C(/C)C(=O)NC(=CC1=O)C2=O [geldanamycin]
- affinity_median (pIC50) [20]: 6.55
- IC50 [20]: 282 nM

SMILES: CCNC(=O)c1noc(-c2cc(C(C)C)c(O)cc2O)c1-c1ccc(CN2CCOCC2)cc1 [luminespib]
- affinity_median (pIC50) [20]: 8.7
- IC50 [20]: 2 nM

SMILES: CC(=O)O[C@H]1C(=O)[C@@]2(C)[C@H]([C@H](OC(=O)c3ccccc3)[C@]3(O)C[C@H](OC(=O)[C@H](O)[C@@H](NC(=O)c4ccccc4)c4ccccc4)C(C)=C1C3(C)C)[C@]1(OC(C)=O)CO[C@@H]1C[C@@H]2O [paclitaxel]
- ACT_VALUE, ACT_TYPE EC50 [19]: 8.05

SMILES: COc1cc([C@@H]2c3cc4c(cc3[C@H](O)[C@H]3COC(=O)[C@H]23)OCO4)cc(OC)c1OC [podophyllotoxin]
- ACT_VALUE, ACT_TYPE IC50 [19]: 6

SMILES: COc1cc(O)c2c(=O)c(-c3ccc(O)cc3)coc2c1 [prunetin]
- affinity_median (pKi) [21]: 6.35
- Ki [21, 23]: 450 nM

SMILES: CC[C@]1(O)C[C@@H]2CN(CCc3c([nH]c4ccccc34)[C@@](C(=O)OC)(c3cc4c(cc3OC)N(C)[C@H]3[C@@](O)(C(=O)OC)[C@H](OC(C)=O)[C@]5(CC)C=CCN6CC[C@]43[C@@H]65)C2)C1 [vinblastine]
- ACT_VALUE, ACT_TYPE IC50 [19]: 9

SMILES: C[C@@H](Nc1nc(N[C@H](C)C(F)(F)F)nc(-c2cccc(Cl)n2)n1)C(F)(F)F [vorasidenib]
- assay_description (result in words) [22]: Inhibits mutant IDH2.
